Values quoted from earlier work in patent US20240293312A1, “PHARMACEUTICAL COMPOSITIONS OF 3-(4-AMINO-1-OXO-1, 3 DIHYDRO-ISOINDOL-2-YL)-PIPERIDINE-2, 6-DIONE” (priority 2021, published 2024).

For `Nc1cccc2c1CN(C1CCC(=O)NC1=O)C2=O` (stereo not shown) [Lenalidomide, 3-(4-amino-1-oxo-1,3-dihydro-2H-isoindol-2-yl) piperidine-2,6-dione], the “solubility (in words)” value is listed as “soluble in organic solvent/water mixtures, and buffered aqueous solvents”.
